This assay concerns male Wistar rats. Kind of assay: In vivo model of ischaemic acute renal failure induced by transient bilateral renal artery occlusion. The note with it: rat, 15 mg/kg IP. How it is done:
The experiment was carried out using male Wistar rats (Janvier Labs, C.S. 4105, Saint-Berthevin F-53941, France), weighing 200-260 g on the day of surgery. Before surgery, the animals were housed in groups 2-4 in polysulfone cages (floor area=1500 cm^2) under standard conditions: room temperature (22±2° C.), hygrometry (55±10%), light/dark cycle (12 h/12 h), air replacement (15-20 volumes/hour), water and food (SAFE, ref. A04) ad libitum. The animals were allowed to acclimate to environmental conditions for at least 5 days prior to experimentation. Rats were anesthetised with sodium pentobarbital (60 mg/kg i.p.), and placed on a servocontrolled heating table to maintain rectal temperature close to 37° C. After endotracheal intubation animals were mechanically ventilated. The abdominal cavity was exposed by medial laparotomy, both left and right renal arteries will be identified, carefully dissected from the renal vein and clamped for 40 min. During this clamping period the abdominal cavity was kept closed. The clamps were released, perfusion to the kidneys re-established and the abdominal cavity sutured. Animals where reperfusion were incomplete, as judged visually, were excluded. Post-surgical analgesia was ensured by subcutaneous administration of buprenorphine (10 50 μg/kg, sc) twice daily for 2 days (including the day of surgery). After surgery, the animals were individually housed. The animals were observed and weighted daily and the sutures were examined and disinfected with antiseptic solution (povidone-iodine) if needed.
A follow-up of body weight and mortality were performed for all animals, the day of surgery and during the 7 days following ischaemia. In order to determine creatinine and blood urea nitrogen (BUN) concentrations in plasma, 6 blood samples of at least 0.3 mL were taken from each animal: before surgery and then on days 1, 2, 3 (before vehicle/SBL01 administrations), 4 and 7 after surgery. The following parameters were measured: Creatinine concentration in plasma, Blood urea nitrogen concentration, and Body weight. […]

For the compound `Oc1ccc(-c2cc3cccnc3[nH]2)cc1` [Compound 7, 4-(1H-pyrrolo[2,3-b]pyridin-2-yl)phenol], the creatinine plasma level result (Day 2 after surgery, vs vehicle, FIG. 40) is “significant decrease”. Also, the urea plasma level result (Day 2 after surgery, vs vehicle, FIG. 41) is reported as “significant decrease”. Where the note is “compared to the vehicle”, the “renal function during artery occlusion (protection against renal ischaemic failure)” value is “protective effect”.

The record behind these values is US20240116923A1, “USE OF INDOLE, 6- AND 7-AZAINDOLE DERIVATIVES AS INHIBITORS OF FERROPTOSIS REGULATED CELL DEATH” (Seabelife, priority 2021, published 2024).
